Laboratory results from patent publication US6472391B2, “Nitrogen-containing heterocyclic compounds” (Millennium Pharmaceuticals, Inc., priority 1996, dated 2002).
Where two headings read alike, the source gives them in different places.

Key:
[1] = tested on: Vascular smooth muscle cells; assay: Growth inhibition against smooth muscle cells (PDGF-BB stimulated, XTT method); format: cell-based; settings: Sus scrofa, 72 h, pig aorta cells, PDGF-BB 20 ng/ml, 3 days, read-out: Growth Inhibitory effect against smooth muscle cells IC50
Text: Test Example 2 Growth Inhibition Against Smooth Muscle Cells
Vascular smooth muscle cells were isolated from a pig aorta by explantation and used for the test. The cells were put into wells of a 96-well plate (8000 cells/well) and cultured in Dulbecco's modified Eagle's medium (DMEM; Nissui Pharmaceutical Co., Ltd.) containing 10% fetal bovine serum (FBS; Hyclone) for 4 days. Then, the cells were further cultured in DMEM containing 0.1% FBS for 3 days, and were synchronized at the cell growth stationary phase.
To each well was added DMEM containing 0.1% FBS and a test sample at a varied concentration, and the cell growth was brought about by PDGF-BB (SIGMA, final concentration: 20 ng/ml). After culturing for 3 days, the cell growth was measured using the cell growth assay kit (Boehringer Mannheim) according to the XTT method [J. Immunol. Methods, 142, 257-265 (1991)], and the cell growth score was calculated by the following equation.
P100: Absorbance by XTT reagent when stimulated by PDGF-BB
P0: Absorbance by XTT reagent when not stimulated by PDGF-BB
M: Absorbance by XTT reagent after addition of a sample when stimulated by PDGF-BB

Lewis rats = assay: Rat adjuvant arthritis model; format: in vivo; settings: 3 mg/ml suspension, 1 ml/100 g orally once a day; for inhibition at 3000 µg/mL (stock): Rattus norvegicus, po, 120 h
Description: Test Example 4 Evaluation by the use of a Rat Adjuvant Arthritis Model
Killed cells of Mycobacterium butyricum (Difco Laboratories Inc.) were disrupted in agate mortar and suspended in liquid paraffin to the final concentration of 6.6 mg/ml, followed by sterilization with high pressure steam. Then, 100 μl of the suspension was intradermaly injected into the right hind foot pad of each animal of groups of female 8-weeks-old Lewis rats (Charles River Japan) (6 animals/group) to induce adjuvant arthritis. A test compound was suspended in a 0.5% solution of methylcellulose to the final concentration of 3 mg/ml, and from just before the induction of arthritis, the suspension was orally administered in an amount of 1 ml/100 g of the body weight once a day, 5 days a week. To a control group was administered a 0.5% solution of methylcellulose. A normal group was given no adjuvant treatment or test compound administration. The administration of the test compound was continued till the 18th day after the adjuvant treatment. On the 17th day, the number of leukocytes in peripheral blood was counted, and on the 18th day, all the blood was collected, followed by dissection. The change in body weight with the passage of time, the change of edema in hind paw with the passage of time, the weight of spleen and thymus, the number of leukocytes in peripheral blood, the hydroxyproline content of urine, the glucosaminoglycan content of urine, the SH concentration in serum, the concentration of nitrogen monoxide in serum and the concentration of mucoprotein in serum were measured and evaluated. The volume of both hind paws was measured using a rat's hind foot edema measurement device (TK-101, Unicom). The number of leukocytes in peripheral blood was counted using an automatic multichannel blood cell counter (Sysmex K-2000, Toa Iyo Denshi Co., Ltd.). The hydroxyproline content of urine was measured according to the method described in Ikeda, et al., Annual Report of Tokyo Metropolitan Research Laboratories P. H., 36, 277 (1985), and the glucosaminoglycan content was measured according to the method described in Moriyama, et al., Hinyo Kiyo, 40, 565 (1994) and Klompmakers, et al., Analytical Biochemistry, 153, 80 (1986). […] The concentration of mucoprotein was measured using Aspro GP Kit (Otsuka Pharmaceutical Co., Ltd.). The percentage of inhibition for each indication was calculated according to the following equation.
% Inhibition={(Control group−Compound-administered group)/(Control group−Normal group)}×100

human β-PDGF receptor = biological target: T1, human β-PDGF receptor (Homo sapiens, UniProt P09619); assay: Inhibitory effect on phosphorylation of PDGF receptor; format: cell-based; settings: CHO cells expressing human β-PDGF receptor
T1 construct: expressed in transfected cells; host or cells: Chinese hamster ovary cells (CHO)
T1 sequence (P09619 33-1106): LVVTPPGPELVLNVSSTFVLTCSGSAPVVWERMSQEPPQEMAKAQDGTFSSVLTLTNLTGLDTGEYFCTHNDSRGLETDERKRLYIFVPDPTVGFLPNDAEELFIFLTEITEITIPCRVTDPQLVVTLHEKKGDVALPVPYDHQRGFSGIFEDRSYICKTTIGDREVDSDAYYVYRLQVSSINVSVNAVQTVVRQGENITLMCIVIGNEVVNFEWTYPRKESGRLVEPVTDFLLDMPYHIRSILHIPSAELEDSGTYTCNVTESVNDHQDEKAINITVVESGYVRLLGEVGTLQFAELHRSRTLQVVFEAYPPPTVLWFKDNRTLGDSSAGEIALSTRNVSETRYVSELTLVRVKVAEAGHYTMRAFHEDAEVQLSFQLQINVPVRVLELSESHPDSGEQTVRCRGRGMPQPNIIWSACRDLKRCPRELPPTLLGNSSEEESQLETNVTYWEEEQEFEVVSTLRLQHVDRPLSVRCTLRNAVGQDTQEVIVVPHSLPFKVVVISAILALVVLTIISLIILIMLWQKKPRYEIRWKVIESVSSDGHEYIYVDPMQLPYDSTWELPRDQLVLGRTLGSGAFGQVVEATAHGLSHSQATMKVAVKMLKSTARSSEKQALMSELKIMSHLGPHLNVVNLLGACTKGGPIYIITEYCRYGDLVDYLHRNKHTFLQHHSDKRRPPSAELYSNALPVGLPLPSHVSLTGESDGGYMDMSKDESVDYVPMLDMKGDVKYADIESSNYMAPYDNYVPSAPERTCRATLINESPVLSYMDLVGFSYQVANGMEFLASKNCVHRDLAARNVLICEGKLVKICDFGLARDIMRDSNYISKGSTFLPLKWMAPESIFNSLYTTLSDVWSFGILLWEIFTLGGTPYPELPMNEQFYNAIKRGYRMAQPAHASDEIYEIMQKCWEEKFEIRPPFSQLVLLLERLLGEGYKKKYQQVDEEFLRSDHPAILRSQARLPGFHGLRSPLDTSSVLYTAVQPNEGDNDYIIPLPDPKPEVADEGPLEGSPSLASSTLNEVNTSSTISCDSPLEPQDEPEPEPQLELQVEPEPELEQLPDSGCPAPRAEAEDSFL
Description: Test Example 1 Inhibitory Effect on Phosphorylation of PDGF Receptor
The test was carried out according to the method described in the literature [Dah-Shuhn et al., J. Biol. Chem., 266, 413-418 (1991)], using Chinese hamster ovary cells (CHO) wherein human β-PDGF receptor cDNA was introduced and expressed.

Row | melting point [°C] | IC50 (human β-PDGF receptor) [nM] | Compound | also measured
1 |  |  | COc1cc2ncnc(N3CCN(C(=O)Nc4ccc(Oc5ccccc5)cc4)CC3)c2cc1OC [Compound 60, 4-(6,7-Dimethoxy-4-quinazolinyl)-N-(4-phenoxyphenyl)-1-piperazinecarboxamide] | IC50 [1]: 30 nM
2 | 274 to 275 |  | COc1cc2ncnc(N3CCN(C(=O)Nc4ccc(C#N)cc4)CC3)c2cc1OC [Compound 239, N-(4-Cyanophenyl)-4-(6,7-dimethoxy-4-quinazolinyl)-1-piperazinecarboxamide] | Volume of left hind foot (Lewis rats; 5 days a week, normal 1.12 ± 0.03, sensitized control 1.84 ± 0.18): 1.52 ± 0.16 mL; Weight of spleen (Lewis rats; normal 21.4 ± 0.3, sensitized control 53.8 ± 3.8, P < 0.05 vs control): 40.4 ± 2.5 mg/10 g of body weight; Body weight (Lewis rats; normal 191 ± 5, sensitized control 146 ± 4, P < 0.05 vs control): 159 ± 2 g; inhibition at 3000 µg/mL (stock) (Lewis rats; 5 days a week, read-out: Inhibition rate (NO concentration)): 42%; inhibition at 3000 µg/mL (stock) (Lewis rats; 5 days a week, read-out: Inhibition rate (body weight)): 29%; inhibition at 3000 µg/mL (stock) (Lewis rats; 5 days a week, read-out: Inhibition rate (volume of left hind foot)): 44%; inhibition at 3000 µg/mL (stock) (Lewis rats; 5 days a week, read-out: Inhibition rate (weight of spleen)): 41%; NO concentration (Lewis rats; serum, normal 11.1 ± 1.0, sensitized control 56.6 ± 7.0): 37.6 ± 4.0 µM
3 | 223 to 228 | 160 | COc1cc2ncnc(N3CCN(C(=O)Nc4ccc(Br)cc4)CC3)c2cc1OC [Compound 45, N-(4-bromophenyl)-4-(6,7-dimethoxy-4-quinazolinyl)-1-piperazinecarboxamide] | IC50 [1]: 80 nM
4 | 244 to 246 | 310 | COc1cc2ncnc(N3CCN(C(=O)Nc4ccc(N=Nc5ccccc5)cc4)CC3)c2cc1OC [Compound 229, 4-(6,7-Dimethoxy-4-quinazolinyl)-N-(4-phenylazophenyl)-1-piperazinecarboxamide] | 
5 | 190 to 191 | 190 | O=C(Nc1ccc(Oc2ccccc2)cc1)N1CCN(c2ncnc3cc(Cl)c([N+](=O)[O-])cc23)CC1 [Compound 357, 4-(7-Chloro-6-nitro-4-quinazolinyl)-N-(4-phenoxyphenyl)-1-piperazinecarboxamide] | 
6 | 252 to 254 |  | COc1cc2ncnc(N3CCN(C(=O)Nc4ccc(C(C)C)cc4)CC3)c2cc1OC [Compound 19, 4-(6,7-Dimethoxy-4-quinazolinyl)-N-(4-isopropylphenyl)-1-piperazinecarboxamide] | IC50 [1]: 180 nM
7 | 221 to 222 | 710 | COc1cc2ncnc(N3CCN(C(=O)Nc4ccc(Cl)c(Cl)c4)CC3)c2cc1OC [Compound 54, N-(3,4-Dichlorophenyl)-4-(6,7-dimethoxy-4-quinazolinyl)-1-piperazinecarboxamide] | 
8 | 272 to 274 |  | COc1cc2ncnc(N3CCN(C(=O)Nc4ccc([N+](=O)[O-])cc4)CC3)c2cc1OC [Compound 77, 4-(6,7-dimethoxy-4-quinazolinyl)-N-(4-nitrophenyl)-1-piperazinecarboxamide] | IC50 [1]: 100 nM
9 | 252 to 254 | 1400 | COc1cc2ncnc(N3CCN(C(=O)Nc4ccc(-n5cccc5)nc4)CC3)c2cc1OC [Compound 283, 4-(6,7-Dimethoxy-4-quinazolinyl)-N-[2-(1-pyrrolyl)-5-pyridyl]-1-piperazinecarboxamide] | 
10 | 107 to 110 | 1470 | S=C(NCc1cccnc1)N1CCN(c2ncnc3cc4ccccc4cc23)CC1 [Compound 366, 4-(4-Benzo[g]quinazolinyl)-N-(3-picolyl)-1-piperazinethiocarboxamide] | 
11 | 147 to 148 | 460 | COc1cc2ncnc(N3CCN(C(=S)NCCCc4ccccc4)CC3)c2cc1OC [Compound 135, 4-(6,7-Dimethoxy-4-quinazolinyl)-N-(3-phenylpropyl)-1-piperazinethiocarboxamide] | 
12 | 203 to 204 | 410 | COc1cc2ncnc(N3CCN(C(=O)NCc4ccc(Cl)cc4)CC3)c2cc1OC [Compound 178, N-(4-Chlorobenzyl)-4-(6,7-dimethoxy-4-quinazolinyl)-1-piperazinecarboxamide] | 
13 | 186 to 187 | 500 | COc1cc2ncnc(N3CCN(C(=S)NCc4ccc(C#N)cc4)CC3)c2cc1OC [Compound 240, N-(4-Cyanobenzyl)-4-(6,7-dimethoxy-4-quinazolinyl)-1-piperazinethiocarboxamide] | 
14 | 104 to 106 | 220 | COc1cc2ncnc(N3CCN(C(=S)NCc4cccnc4)CC3)c2cc1OC [Compound 98, 4-(6,7-Dimethoxy-4-quinazolinyl)-N-(3-picolyl)-1-piperazinethiocarboxamide] | 
15 | 226 to 227 | 940 | COc1cc2ncnc(N3CCN(C(=S)Nc4ccc(N(C)C)cc4)CC3)c2cc1OC [Compound 71, 4-(6,7-Dimethoxy-4-quinazolinyl)-N-(4-dimethylaminophenyl)-1-piperazinethiocarboxamide] | 
16 | 120 to 121 | 440 | CCOc1cc2ncnc(N3CCN(C(=O)Nc4ccc([N+](=O)[O-])cc4)CC3)c2cc1OCC [Compound 105, 4-(6,7-Diethoxy-4-quinazolinyl)-N-(4-nitrophenyl)-1-piperazinecarboxamide] | 
17 | 177 to 178 | 580 | COc1cc2ncnc(N3CCN(C(=S)Nc4ccccc4[N+](=O)[O-])CC3)c2cc1OC [Compound 78, 4-(6,7-Dimethoxy-4-quinazolinyl)-N-(2-nitrophenyl)-1-piperazinethiocarboxamide] | IC50 [1]: 740 nM
18 | 149 to 150 | 460 | COc1cc2ncnc(N3CCN(C(=S)Nc4ccc(S(=O)(=O)N5CCCCC5)cc4)CC3)c2cc1OC [Compound 254, 4-(6,7-Dimethoxy-4-quinazolinyl)-N-(4-piperidinosulfonylphenyl)-1-piperazinethiocarboxamide] | 
19 | 186 to 187 | 330 | O=C(Nc1ccc(Oc2ccccc2)cc1)N1CCN(c2ncnc3ccc(F)cc23)CC1 [Compound 297, 4-(6-Fluoro-4-quinazolinyl)-N-(4-phenoxyphenyl)-1-piperazinecarboxamide] | 
20 | 244 to 246 | 760 | Cc1ccc2ncnc(N3CCN(C(=O)Nc4ccc(Oc5ccccc5)cc4)CC3)c2c1 [Compound 292, 4-(6-Methyl-4-quinazolinyl)-N-(4-phenoxyphenyl)-1-piperazinecarboxamide] | 

Row | Compound | melting point [°C] | IC50 (human β-PDGF receptor) [nM] | also measured
21 | COc1cc2ncnc(N3CCN(C(=S)Nc4ccc(CNC(=O)OC(C)(C)C)cc4)CC3)c2cc1OC [Compound 228, N-[4-(N-tert-Butoxycarbonylaminomethyl)phenyl]-4-(6,7-dimethoxy-4-quinazolinyl)-1-piperazinethiocarboxamide] | 123 to 126 | 290 | 
